In the NIST ThermoML archive (doi:10.1021/je060390q):
± gives the expanded uncertainty stated by the source.

Key:
[1] = Maximal bubble pressure
[2] = xn = mol fraction of the nth substance listed; conditions: Maximal bubble pressure

Cc1ccccc1C [1,2-dimethylbenzene]
[1]
Conditions | surface tension liquid-gas [mN/m]
303.15 K | 28.98 ± 0.63
308.15 K | 28.43 ± 0.62
313.15 K | 27.88 ± 0.61
318.15 K | 27.33 ± 0.59
323.15 K | 26.78 ± 0.58
333.15 K | 25.68 ± 0.56
343.15 K | 24.58 ± 0.54

Cc1ccccc1C [1,2-dimethylbenzene] + CC(=O)O
surface tension liquid-gas [mN/m], [2]
Conditions | x2 = 0 | x2 = 0.1001 | x2 = 0.2001 | x2 = 0.3002 | x2 = 0.4 | x2 = 0.5 | x2 = 0.6213 | x2 = 0.7001 | x2 = 0.8 | x2 = 0.9
303.15 K | 28.98 ± 0.63 | 28.81 ± 0.62 | 28.56 ± 0.62 | 28.32 ± 0.61 | 28.07 ± 0.6 | 27.81 ± 0.6 | 27.5 ± 0.59 | 27.29 ± 0.58 | 27.03 ± 0.58 | 26.74 ± 0.57
308.15 K | 28.43 ± 0.62 | 28.26 ± 0.61 | 28.03 ± 0.61 | 27.78 ± 0.6 | 27.54 ± 0.59 | 27.29 ± 0.59 | 26.98 ± 0.58 | 26.78 ± 0.57 | 26.5 ± 0.57 | 26.24 ± 0.56
313.15 K | 27.88 ± 0.61 | 27.71 ± 0.6 | 27.49 ± 0.59 | 27.25 ± 0.59 | 27.01 ± 0.58 | 26.77 ± 0.58 | 26.47 ± 0.57 | 26.26 ± 0.56 | 25.99 ± 0.56 | 25.74 ± 0.55
318.15 K | 27.33 ± 0.59 | 27.17 ± 0.59 | 26.94 ± 0.58 | 26.7 ± 0.58 | 26.47 ± 0.57 | 26.23 ± 0.56 | 25.94 ± 0.56 | 25.74 ± 0.55 | 25.48 ± 0.55 | 25.22 ± 0.54
323.15 K | 26.78 ± 0.58 | 26.62 ± 0.58 | 26.4 ± 0.57 | 26.17 ± 0.57 | 25.95 ± 0.56 | 25.71 ± 0.55 | 25.42 ± 0.55 | 25.22 ± 0.54 | 24.97 ± 0.54 | 24.72 ± 0.53
333.15 K | 25.68 ± 0.56 | 25.54 ± 0.55 | 25.32 ± 0.55 | 25.11 ± 0.54 | 24.89 ± 0.54 | 24.67 ± 0.53 | 24.4 ± 0.52 | 24.2 ± 0.52 | 23.97 ± 0.51 | 23.73 ± 0.51
343.15 K | 24.58 ± 0.54 | 24.45 ± 0.53 | 24.24 ± 0.53 | 24.04 ± 0.52 | 23.84 ± 0.52 | 23.63 ± 0.51 | 23.37 ± 0.5 | 23.18 ± 0.5 | 22.95 ± 0.49 | 22.73 ± 0.49

Cc1cccc(C)c1 [1,3-dimethylbenzene]
[1]
Conditions | surface tension liquid-gas [mN/m]
303.15 K | 27.58 ± 0.6
308.15 K | 27.04 ± 0.59
313.15 K | 26.49 ± 0.58
318.15 K | 25.94 ± 0.56
323.15 K | 25.38 ± 0.55
333.15 K | 24.27 ± 0.53
343.15 K | 23.18 ± 0.51

Cc1cccc(C)c1 [1,3-dimethylbenzene] + CC(=O)O
surface tension liquid-gas [mN/m], [2]
Conditions | x2 = 0 | x2 = 0.1001 | x2 = 0.2001 | x2 = 0.3 | x2 = 0.4188 | x2 = 0.4999 | x2 = 0.5999 | x2 = 0.7018 | x2 = 0.7999 | x2 = 0.9
303.15 K | 27.58 ± 0.6 | 27.51 ± 0.6 | 27.4 ± 0.59 | 27.3 ± 0.59 | 27.17 ± 0.58 | 27.07 ± 0.58 | 26.95 ± 0.58 | 26.87 ± 0.57 | 26.71 ± 0.57 | 26.56 ± 0.57
308.15 K | 27.04 ± 0.59 | 26.97 ± 0.58 | 26.87 ± 0.58 | 26.77 ± 0.58 | 26.63 ± 0.57 | 26.55 ± 0.57 | 26.47 ± 0.57 | 26.36 ± 0.56 | 26.19 ± 0.56 | 26.06 ± 0.56
313.15 K | 26.49 ± 0.58 | 26.42 ± 0.57 | 26.33 ± 0.57 | 26.24 ± 0.57 | 26.1 ± 0.56 | 26.03 ± 0.56 | 25.95 ± 0.56 | 25.84 ± 0.55 | 25.68 ± 0.55 | 25.56 ± 0.55
318.15 K | 25.94 ± 0.56 | 25.88 ± 0.56 | 25.78 ± 0.56 | 25.69 ± 0.56 | 25.58 ± 0.55 | 25.5 ± 0.55 | 25.42 ± 0.55 | 25.32 ± 0.54 | 25.17 ± 0.54 | 25.04 ± 0.54
323.15 K | 25.38 ± 0.55 | 25.32 ± 0.55 | 25.24 ± 0.55 | 25.15 ± 0.54 | 25.04 ± 0.54 | 24.98 ± 0.54 | 24.9 ± 0.54 | 24.76 ± 0.53 | 24.65 ± 0.53 | 24.55 ± 0.53
333.15 K | 24.27 ± 0.53 | 24.23 ± 0.53 | 24.16 ± 0.52 | 24.08 ± 0.52 | 23.98 ± 0.52 | 23.92 ± 0.52 | 23.85 ± 0.51 | 23.74 ± 0.51 | 23.65 ± 0.51 | 23.55 ± 0.51
343.15 K | 23.18 ± 0.51 | 23.15 ± 0.51 | 23.08 ± 0.5 | 23.02 ± 0.5 | 22.93 ± 0.5 | 22.88 ± 0.49 | 22.82 ± 0.49 | 22.72 ± 0.49 | 22.63 ± 0.49 | 22.55 ± 0.48

CC(=O)O [acetic acid]
[1]
Conditions | surface tension liquid-gas [mN/m]
303.15 K | 26.4 ± 0.56
308.15 K | 25.91 ± 0.55
313.15 K | 25.41 ± 0.54
318.15 K | 24.91 ± 0.53
323.15 K | 24.42 ± 0.52
333.15 K | 23.44 ± 0.5
343.15 K | 22.45 ± 0.48

CC(=O)O [acetic acid] + Cc1cccc(C)c1
[2], x1 = 1
Conditions | surface tension liquid-gas [mN/m]
303.15 K | 26.4 ± 0.56
308.15 K | 25.91 ± 0.55
313.15 K | 25.41 ± 0.54
318.15 K | 24.91 ± 0.53
323.15 K | 24.42 ± 0.52
333.15 K | 23.44 ± 0.5
343.15 K | 22.45 ± 0.48

CC(=O)O [acetic acid] + Cc1ccccc1C
[2], x1 = 1
Conditions | surface tension liquid-gas [mN/m]
303.15 K | 26.4 ± 0.56
308.15 K | 25.91 ± 0.55
313.15 K | 25.41 ± 0.54
318.15 K | 24.91 ± 0.53
323.15 K | 24.42 ± 0.52
333.15 K | 23.44 ± 0.5
343.15 K | 22.45 ± 0.48
